{Lys} = L-lysine residue attached to the PNA terminus
Tests used:
[1] = test system: Cas9 RNP, FANCF sgRNA, FANCF ON site; experiment: FANCF on-target editing in K562 cells (amplicon sequencing); type: cell-based, human
Description: For Cas9 RNP assembly, 50 pmol of sgRNA (IDT, Alt-R CRISPR-Cas9 sgRNA) and 45 pmol of SpCas9 (CPO2, PNA BIO) were incubated at room temperature for 10 minutes in a 5 μL reaction in 1×3.1 Buffer (B7203S, NEB). For nucleofections, 1×10^6 cells, 5 μL Cas9 RNP, and 1 μL of Alt-R Cas9 electroporation enhancer (IDT) were resuspended in 100 μL of Lonza cell line solution (V4XC-2024/V4XC-1024, Lonza) and nucleofected using a Lonza 4D-Nucleofector X unit. Cas9 RNP treated cells were seeded in 2 mL of complete media and incubated for 96 hours prior to harvesting for analysis. […]
(§1) Genomic DNA was purified from 0.5×10^6 cells using Promega ReliaPrep gDNA Tissue Miniprep System (A2052) and eluted in 50 μL of water. […] FASTQ reads were subjected to quality analysis (Basespace FASTQC) and analyzed for indel frequency using Cas-Analyzer assessment tool (parameters: Comparison range (R)—both ends of full amplicon sequence, Minimum frequency (n)=1). gRNAs used in this study are listed in Table 8, amplicon genomic coordinates listed in Table 9.
(§2) 10^6 K562 cells were nucleofected (Lonza 4D Nucleofector) with specified dose (0-150 pmol) of FANCF PAM-distal 10mer PNA. […] Sequencing data was analyzed for indel frequency using a validated Cas-Analyzer tool (Park, et al., Bioinformatics 33, 286-288 (2017)).

[2] = test system: Cas9 RNP, FANCF sgRNA, FANCF OT1 site; experiment: FANCF off-target editing in K562 cells (amplicon sequencing); type: cell-based, human
Description: (§3) For Cas9 RNP assembly, 50 pmol of sgRNA (IDT, Alt-R CRISPR-Cas9 sgRNA) and 45 pmol of SpCas9 (CPO2, PNA BIO) were incubated at room temperature for 10 minutes in a 5 μL reaction in 1×3.1 Buffer (B7203S, NEB). For nucleofections, 1×10^6 cells, 5 μL Cas9 RNP, and 1 μL of Alt-R Cas9 electroporation enhancer (IDT) were resuspended in 100 μL of Lonza cell line solution (V4XC-2024/V4XC-1024, Lonza) and nucleofected using a Lonza 4D-Nucleofector X unit. Cas9 RNP treated cells were seeded in 2 mL of complete media and incubated for 96 hours prior to harvesting for analysis.
(§4) For PNA pre-treatments, 1×10^6 cells and 1 μL of PNA diluted to desired concentration in water were similarly nucleofected using Lonza cell line kits and 4D-Nucleofector. PNA nucleofected cells were resuspended in 1.25 mL of complete media in 1.5 mL tubes and incubated at 37° C. for 2 hours before Cas9 RNP nucleofection as described above. After Cas9 RNP nucleofection cells were seeded in 2 mL of complete media and incubated for 96 hours prior to harvesting and analysis.
as §1, with “water. Library prep used 100 ng of gDNA input with Ampliseq for Illumina Library Plus kit (20019101, Illumina) and used a custom primer pool designed to amplify a designed panel of genomic targets of interest (Table 9).” for “water.”
as §2

[3] = test system: Cas9 RNP (FANCF, EMX1, ZSCAN2, CCR5, VEGFA gRNAs); experiment: On-target specificity of Cas9 RNP (ratio of on-target to off-target editing rates); type: cell-based, human
Description: as §4
Genomic DNA was purified from 0.5×10^6 cells using Promega ReliaPrep gDNA Tissue Miniprep System (A2052) and eluted in 50 μL of water. Library prep used 100 ng of gDNA input with Ampliseq for Illumina Library Plus kit (20019101, Illumina) and used a custom primer pool designed to amplify a designed panel of genomic targets of interest (Table 9). Libraries were indexed, pooled, and loaded onto a Mid-output (300-cycles, Illumina, FC-420-1004) cartridge for paired-end sequencing on an Illumina Miniseq instrument. FASTQ reads were subjected to quality analysis (Basespace FASTQC) and analyzed for indel frequency using Cas-Analyzer assessment tool (parameters: Comparison range (R)—both ends of full amplicon sequence, Minimum frequency (n)=1). gRNAs used in this study are listed in Table 8, amplicon genomic coordinates listed in Table 9.
In the case of EMX1 ON and OFF target amplicons, both regions were amplified from 200 ng of purified gDNA by Phusion High-Fidelity Polymerase (NEB, M0530S) and pooled and purified using QIAGEN PCR purification kit (28104, Qiagen). Library prep used 200 ng of purified amplicon input with Illumina DNA Prep kit (20025519, Illumina). EMX1 libraries were similarly indexed, pooled, sequenced, and analysed as above.
For pre-annealed PAM-distal PNA experiments, 50 pmol of sgRNA and 50 pmol of PAM-distal 10mer PNAs were incubated in a thermocycler at 37° C. for 30 minutes in a 5 μL reaction in 1×3.1 Buffer (B7203S, NEB) to allow annealing. PNA annealing to sgRNAs was confirmed by gel shift on 5% polyacrylamide gel. 45 pmol of SpCas9 (CP02, PNA BIO) was then added at room temperature and incubated for 10 minutes to allow RNP formation. Resulting reaction was delivered to 1×10^6 K562 cells by a single nucleofection and treated as described above.

[4] = test system: Cas9 RNP, ZSCAN2 sgRNA, ZSCAN2 ON site; experiment: ZSCAN2 on-target editing in K562 cells (amplicon sequencing); type: cell-based, human; conditions: PNA pre-treatment 2 hours before Cas9 RNP (FIG. 10A: 50 pmol PNA)
Description: as §3
as §4, with “After Cas9 RNP nucleofection cells were seeded in 2 mL of complete media and incubated for 96 hours prior to harvesting and analysis.” left out
as §1

[5] = test system: Cas9 RNP, ZSCAN2 sgRNA, ZSCAN2 off-target site; experiment: ZSCAN2 off-target editing in K562 cells (amplicon sequencing); type: cell-based, human; conditions: PNA pre-treatment 2 hours before Cas9 RNP (FIG. 10A: 50 pmol PNA)
Description: as §3
as §4, with “After Cas9 RNP nucleofection cells were seeded in 2 mL of complete media and incubated for 96 hours prior to harvesting and analysis.” left out
as §1

[6] = test system: BFP sgRNA and BFP Cas9 RNP; experiment: sgRNA binding assay (EMSA) with TAMRA dye-labeled PNA, BFP target
Description: (§5) 10 pmol of BFP or HBB sgRNA were incubated with or without 10 pmol of purified Cas9 (Sigma) in 20 μL of 1×NEB buffer 3.1 for 15 minutes at room temp. Then, specified doses of a TAMRA dye labeled antispacer BFP ssPNA was added to each reaction and tubes were incubated in thermocycler for 30 minutes at 37C. 5 μL of resulting reactions were run on pre-cast 5% polyacrylamide TBE gels (BIORAD). The gel was washed in 1×TBE buffer and imaged for TAMRA signal using a Gel Doc XR+ gel imager system (BIORAD). Gel was then incubated in 1×SYBR Gold in TBE for 5 minutes, washed in 1×TBE, and imaged for nucleic acid staining on Gel Doc XR+ imager. Resulting images were superimposed using ImageJ.

[7] = test system: HBB sgRNA and HBB Cas9 RNP; experiment: sgRNA binding assay (EMSA) with TAMRA dye-labeled PNA, HBB target; conditions: heterologous spacer sequence (HBB target)
Description: as §5

[8] = test system: Cas9 RNP, CCR5 R30 sgRNA, CCR5 ON site; experiment: CCR5 on-target editing in K562 cells (amplicon sequencing); type: cell-based, human; conditions: PNA pre-treatment 2 hours before Cas9 RNP (FIG. 10A: 50 pmol PNA)
Description: as §3
as §4, with “After Cas9 RNP nucleofection cells were seeded in 2 mL of complete media and incubated for 96 hours prior to harvesting and analysis.” left out
as §1

[9] = test system: Cas9 RNP, CCR5 R30 sgRNA, CCR2 off-target site; experiment: CCR5 gRNA off-target editing in the CCR2 gene in K562 cells (amplicon sequencing); type: cell-based, human; conditions: PNA pre-treatment 2 hours before Cas9 RNP (FIG. 10A: 50 pmol PNA)
Description: as §3
as §4, with “After Cas9 RNP nucleofection cells were seeded in 2 mL of complete media and incubated for 96 hours prior to harvesting and analysis.” left out
as §1

[10] = test system: 20mer RNA oligonucleotide (spacer sequence designed to target the BFP gene); experiment: UV spectroscopy thermal melting analysis of duplexes; type: binding; conditions: 1 μM each strand, 10 mM sodium phosphate buffer pH 7.4
Description: All samples were prepared by mixing a stoichiometric amount of each strand (1 μM) in 10 mM sodium phosphate buffer at pH 7.4 (Table 8). The samples were pre-annealed at 95° C. for 5 mins and gradually cooled to room temperature prior to the melting experiment. UV melting experiments were performed using a Shimadzu UV-3600 Plus UV-Vis-NIR spectrophotometer equipped with a thermoelectrically controlled multicell holder. UV melting spectra were recorded after every 1° C. temperature change by monitoring the absorbance at 260 nm from 20° C. to 110° C. to 20° C., with a heating/cooling ramp rate of 1.0° C./min. The heating and cooling curves were overlapped to confirm reversible denaturation. All spectra were plotted on Origin 2020 and smoothed using a 20-point adjacent averaging algorithm. The first derivative plots of the melting curves were generated to determine the melting temperature for each duplex.

[11] = test system: Cas9 RNP using a sgRNA targeted to the BFP gene; experiment: Cas9 RNP editing of BFP reporter gene in K562-BFP cells (BFP fluorescent drop out, flow cytometry); type: cell-based, human; conditions: 0-250 pmol nucleofected 2 hours prior to Cas9 RNP
Description: as §3, §4
K562 cells were spun down and resuspended in fresh complete media at 300,000 cells/mL 48 hours prior to analysis. Samples for flow cytometry were fixed in complete media with 1% formaldehyde for 15 minutes before spinning down, resuspending in 300 μL PBS, and filtering through a cell strainer capped tube. Samples were analyzed for BFP and GFP fluorescence using a Cytoflex LX instrument (Beckman Coulter) using PacificBlue and FITC lasers, respectively, and quantification and gating was done using FloJo v10 software. Background fluorescent drop out was determined by measurement of mock nucleofected lines in quadruplicate and subtracted from experimental values to determine reported editing frequency.
10^6 stable BFP-expressing K562 cells were nucleofected (Lonza 4D Nucleofector) with a specified dose of PNA or ssDNA oligo (0-250 pmol). Two hours later, all conditions were nucleofected with 45 pmol of purified Cas9 RNP using a sgRNA targeted to the BFP gene. 72 hours later, cells with BFP fluorescent drop out (via Cas9 indel formation) were quantified by flow cytometry (Beckman Coulter—Cytoflex instrument).
In time-course experiments in FIG. 3D, K562 samples were nucleofected with 5 μL RNP reactions with the addition of 100 pmol of ssODN donor in 1 μL of water. RNP nucleofected samples were incubated at 37° C. in complete media before being spun down and nucleofected with 250 pmol of PNA at specified time points. After PNA delivery cells were seeded in 2 mL of complete media and incubated for 96 hours prior to harvesting and analysis.
10^6 stable BFP-expressing K562 cells were nucleofected (Lonza 4D Nucleofector) with specified dose (0-250 pmol, or 250 pmol if unspecified) of specified PNA with sequences homologous to (antispacer) or identical to (cis-spacer) the BFP gRNA spacer sequence. Two hours later, all conditions were nucleofected with 45 pmol of purified Cas9 RNP using a sgRNA targeted to the BFP gene. 72 hours later, cells with BFP fluorescent drop out (via Cas9 indel formation) were quantified by flow cytometry (Beckman Coulter—Cytoflex instrument).
10^6 stable BFP-expressing K562 cells were nucleofected (Lonza 4D Nucleofector) with 45 pmol of purified Cas9 RNP using a sgRNA targeted to the BFP gene. At each specified time point 250 pmol of BFP Anti-protospacer PNA were introduced via nucleofection. For “Cas9 only” condition there was no second PNA nucleofection and for “0 hrs” 250 pmol of PNA was co-nucleofected with Cas9 in a single reaction. After each nucleofection samples were left in fresh media for the duration of the experiment to acquire edits. 72 hours after the “24 hrs” nucleofection, cells for all conditions with BFP fluorescent drop out (via Cas9 indel formation) were quantified by flow cytometry (Beckman Coulter—Cytoflex instrument).

K-CTTCTGCAGC-K (all peptide nucleic acid (PNA), 5' {Lys}, 3' {Lys}) [FANCF PAM-Distal 10 mer PNA]
on-target editing ([1]; 50 pmol PNA (98.0% without PNA)): 93.2% | reduction of on-target editing ([1]; 50 pmol, 1:1 PNA:sgRNA ratio): 4.9% | difference in editing reduction, off-target versus on-target ([2]; 50 pmol): 11.6 fold | off-target editing ([2]; 50 pmol PNA (7.13% without PNA)): 3.07% | reduction of off-target editing ([2]; 50 pmol, 1:1 PNA:sgRNA ratio, compared to Cas9 RNP only): 57.1% | specificity ratio versus Cas9 only ([3]; K562, HEK293, and U2OS cell lines, PNA pre-treatment prior to Cas9 RNP nucleofection): significantly increased specificity ratios | specificity versus pre-treatment approaches ([3]; PNA pre-annealed to sgRNA prior to Cas9 RNP formation, delivered as a single complex, K562): further improved specificity

CTTGCCGCAC (all peptide nucleic acid (PNA); further chemistry not fully specified) [ZSCAN PAMdist 10 mer PNA, 1 Lysine (K) on either end]
decrease of on-target editing [4]: 80.3% | decrease of off-target editing [5]: 66.3% | overall increase in specificity ([3]; K562 cells, PNA pre-treatment): not observed

TAMRA-KKK-ATGGCGTGCAGTGCTTCAGC-KKK (all peptide nucleic acid (PNA); N-terminal TAMRA dye, three lysines flank each end) [TAMRA BFP Antispacer PNA, TAMRA dye conjugated at N-terminus]
additional binding at 20 pmol (2×) doses compared to 10 pmol ([6]; 10 pmol sgRNA, 10 pmol Cas9): no significant additional binding | increase in PNA binding (TAMRA-Cas9 RNP gel bands) between 5 pmol (0.5×) and 10 pmol (1×) conditions ([6]; 10 pmol sgRNA, 10 pmol Cas9): 2.09 fold | PNA-TAMRA signal co-localization with sgRNA and RNP bands ([6]; sequence-matched (BFP target)): strongly co-localized | PNA-TAMRA signal co-localization with sgRNA and RNP bands [7]: not

TCCGCTCTAC (all peptide nucleic acid (PNA); further chemistry not fully specified) [CCR5 PAMdist 10 mer PNA, 1 Lysine (K) on either end]
decrease of on-target editing [8]: 79.1% | off-target editing in the CCR2 gene [9]: undetectable

ATGGCGTGCAGTGCTTCAGC (KKK-ATGGCGTGCAGTGCTTCAGC-KKK; as printed in the source, key not given here) [Anti-protospacer ssDNA oligo, reference compound]
Tm of duplex with RNA spacer sequence [10]: 56 °C | inhibitory effect on Cas9-mediated BFP gene disruption and indel formation [11]: entirely ineffective | inhibitory effect on Cas9-mediated BFP gene disruption and indel formation ([11]; listed as antispacer DNA): no effect

From patent US20240279687A1, “PEPTIDE NUCLEIC ACIDS FOR SPATIOTEMPORAL CONTROL OF CRISPR-CAS BINDING” (Yale University, priority 2021, published 2024)
